Results as given in a melting point compilation (Tetko et al.; mined from patent text by program, amines drawn as free bases though some values may be those of a salt).

| melting point | SMILES |
| --- | --- |
| 126 to 127 °C | COC(=O)NC1CCc2ccc(Cl)cc2C1=O (stereo not drawn) |
| 161 to 164 °C | CC(C)(C)c1ccc(CNC(=S)NC(C)(C)c2ccc(NS(C)(=O)=O)cc2)cc1 |
| 185 to 188 °C | COc1ccc(NC(=O)c2ccc(Cl)c(Cl)c2)cc1NCc1cccs1 |
| 114 °C | COc1ccc(OCc2ccc(=O)n(Cc3ccc(Cl)cc3)c2)cc1 |
| 70 °C | CCCCP(CCCC)(CCCC)=C1CC(=O)OC1=O |
| 111 to 113 °C | C=CCCOc1ccc(CCCOC(=O)NS(=O)(=O)NCCOC(C)C)c(Oc2ncc(C(F)(F)F)cc2Cl)c1 |
| 114 to 115 °C | N#Cc1[nH]ccc1-c1ccc(Cl)cc1 |
| 120 to 121 °C | CCOC(=O)c1oc(C)c(O)c1O |
| 146 to 147 °C | COc1cc(C(=O)CS(=O)(=O)c2ccccc2)ccc1Cc1cn(C(C)C(=O)N(C)C)c2ccc(C(=O)NCC3CCCC3)cc12 (stereo not drawn) |
| 195 to 196 °C | O=C(Nc1ccc(OC(F)(F)F)cc1)NC1CCN(C(=O)C2CC2)CC1 |
| 41 to 42 °C | CCc1cc2cc(F)ccc2[nH]1 |
| 121 to 123 °C | COc1ccc(C2CCc3cc(Br)ccc3O2)cc1 (stereo not drawn) |
| 179 to 182 °C | COc1ccc(S(=O)(=O)n2ccc3ccnc(-c4ccc(O)cc4)c32)cc1 |
| 91 to 93 °C | O=C(O)CCCOc1cccc2occc12 |
| 132 to 134 °C | COc1cc(C=Cc2ccccc2)ccc1O |
| 92 to 93 °C | COC(=O)C1C(C(OC(=S)Oc2ccc(C)cc2)C(C)C)C1(C)C (stereo not drawn) |
| 200 to 202 °C | CCc1[nH]n(C2CCCC2)c2nc(SC)nc(=O)c1-2 |
| 203 to 205 °C | CCC(=O)NC1c2cc3nonc3cc2OC(C)(C)C1O (stereo not drawn) |
| 66 to 67 °C | CCOC(=O)CCc1c(OC)cncc1OC |
| 173 to 174 °C | CCOC(=O)c1c(C)nn2ccc3c(c12)CCO3 |
| 84 °C | CCCCC(=O)Oc1cccc(NC(=O)C=C(C)OC)c1 |
| 106 °C | CC(Cl)(Cl)CC(O)(Cn1cncn1)c1ccc(Cl)cc1 (stereo not drawn) |
| > 260 °C | CC(=O)Nc1ccc(-c2nc3c(s2)C(=O)c2ccccc2C3=O)o1 |
| 130 to 132 °C | COc1cc(/C=C/C(=O)CC(=O)CC(C)(C)C)ccc1O |
| 241 to 243 °C | CCCCOc1c(CN2C(=O)c3ccccc3C2=O)n(CCNC(=O)OC)c(=O)c2cc(Cl)c(Cl)cc12 |
| 103 to 105 °C | COc1ccnc(-c2sccc2S(C)=O)c1 (stereo not drawn) |

| melting point | SMILES |
| --- | --- |
| 56 to 59 °C | Cc1ccc(-c2ccccc2C2=NC(C)(C)CO2)cc1 |
| 68 °C | CCCCC(CC)COC(=O)C(C#N)=Cc1ccc(NC(=O)C(CC)CCCC)cc1 (stereo not drawn) |
| 131 to 132 °C | C[C@@H](N1CCN(c2ccc(OCC(F)(F)F)cc2)C1=O)[C@@]1(c2ccc(F)cc2F)CO1 |
| 134 to 135 °C | CCC(C)CNC(=O)c1ccc2cccc(Cc3ccc(C(=O)OC)cc3OC)c2c1 (stereo not drawn) |
| 215 °C | CN(CC(O)CO)C(=O)c1c(I)c(C#N)c(I)c(C(=O)NCC(O)CO)c1I (stereo not drawn) |
| 144 to 145 °C | CC(NC(=O)Cc1cc(F)cc(F)c1)C(=O)NC1C(=O)N(Cc2ccccc2)Cc2ccccc21 (stereo not drawn) |
| 148 to 152 °C | CCCOc1ccc(S(C)(=O)=O)cc1C(=O)O |
| 116 to 118 °C | O=C(CNC(=O)c1cc([N+](=O)[O-])ccc1Cl)OCc1ccccc1 |
| 205 to 206 °C | Cc1c(Br)c2c(c(C)c1NC(=O)CC(C)(C)C)CC(C)(C)O2 |
| 128 °C | Cc1cc(Cl)ccc1CCN(C(=O)C(C)Cl)c1ccccc1 (stereo not drawn) |
| 149 °C | Cc1c(Cl)cc(NC(=O)CCl)c(O)c1Cl |
| 230 to 255 °C | CC(=O)Nc1cc(N(C)C)c([N+](=O)[O-])cc1C(=O)O |
| 169 to 170 °C | CCCC(=O)c1cnc2c(C)cccc2c1Nc1ccc(Cl)cc1Cl |
| 108 to 109 °C | O=C1NCC(COc2ccccc2)O1 (stereo not drawn) |
| 85 to 87 °C | COc1ccc(C(C)C)cc1-c1cc(-c2nnnn2C2CCNC2)c(OCc2ccccc2)cc1OCc1ccccc1 (stereo not drawn) |
| 110 to 112 °C | CNS(=O)(=O)c1cc(OC)c(OC)c(C(=O)NCC2CCCN2CC2CC2)c1 (stereo not drawn) |
| 180 to 181 °C | O=S(=O)(Nc1cccc2c(Cl)c[nH]c12)c1cccc(Cl)c1 |
| 72 to 80 °C | CC(C)N[C@H](C(=O)NCCCC(c1ccc(F)cc1)c1ccc(F)cc1)C(C)C |
| 54 °C | Nc1ccc(OCc2ccccc2)c(Cl)c1 |
| 117 to 118 °C | O=C1C[C@@H](NC(=O)OCc2ccccc2)C(=O)N1 |
| 44 to 45 °C | CCCCc1c(C(=O)OCC)cc(OC)c2ccc(OC)cc12 |
| 93 °C | CC1(C)COc2cc(F)c(F)cc2C(O)(c2ccccn2)C1 (stereo not drawn) |
| 107 to 109 °C | S=C(NN=C(CCCCl)c1ccccc1)Nc1ccccc1 |
| 102 to 105 °C | COc1cccc(-n2nc(-c3ccccc3)c3cccnc32)c1 |
| 253 to 255 °C | CNc1nc(C)c(-c2ccnc(Nc3cccc(CNC(C)=O)c3)n2)s1 |
| 85 to 87 °C | COc1ccc(OC2CCN(C)C2)c(C(N)=O)c1 (stereo not drawn) |

| melting point | SMILES |
| --- | --- |
| 176 to 178 °C | O=C(Nc1ccc(C(=O)N2C[C@@H]3C[C@@H](O)CN3C(=O)c3ccccc32)cc1)c1ccccc1-c1ccccc1 |
| 126 to 127 °C | Clc1nccc(-c2ccc(Cl)c(Cl)c2)n1 |
| 99 °C | O=[N+]([O-])c1ccc(CCN2CCN(c3nsc4ccccc34)CC2)cc1 |
| 110 to 111 °C | OC(CCCc1cccnc1)COc1ccc(C=Cc2ccccc2)cc1 (stereo not drawn) |
| 140 to 142 °C | O=CNN(Cc1ccccc1[N+](=O)[O-])c1ccccc1 |
| > 220 °C | CC(NC(=O)Cc1cc(F)cc(F)c1)C(=O)NC1CCCCCNC(=O)C1 (stereo not drawn) |
| 240 to 243 °C | Cc1cc(=O)[nH]c(=S)n1C1CCCCC1 |
| 226 °C | O=C(NCCN1CCCCC1n1c(=O)[nH]c2ccccc21)c1cccc(F)c1 (stereo not drawn) |
| 177 to 179 °C | CN(Cc1ccc(NS(C)(=O)=O)cc1)C1CCN(c2ccc(NS(C)(=O)=O)cc2)CC1 |
| 79 to 81 °C | CCOC(=O)C(=O)c1ccccc1C(=O)c1ccc(Cl)cc1 |
| 85 to 87 °C | CCCCc1oc2ccc(C#N)cc2c1C(=O)c1ccc(OCCCN(CCCC)CCCC)cc1 |
| 205 to 208 °C | CNC(=O)C1(N2C(=O)c3cccc(NC(C)=O)c3C2=O)CCCCC1 |
| 180 to 181 °C | COC(=O)c1ccc2c(=O)n(CC(C)C)c(CNC(=O)OC(C)(C)C)c(-c3ccccc3F)c2c1 |
| 171 to 172 °C | Nc1ccc(C(c2ccc(N)cc2)(c2ccc(I)cc2)C(F)(F)F)cc1 |
| 166 to 167 °C | O=c1cc2c(nn1-c1ccc(Cl)cc1)-c1cccnc1CC2 |
| 300 to 301 °C | O=c1c2cccnc2n(-c2cccc(Cl)c2)c2cc[nH]c12 |
| 167 to 169 °C | N#Cc1ccc(N2CCC(c3ccccc3)CC2)cc1 |
| 172 °C | C#CCc1ccc2c(C)c(C(=O)O)c(=O)oc2c1 |
| 207 to 209 °C | CC(=O)Nc1ccc(/C=C/C(=O)NCC(=O)N(C)c2ccc(Cl)c(CO)c2Cl)cn1 |
| 148 to 150 °C | COc1ccc(/C=C/S(=O)(=O)CS(=O)(=O)/C=C/c2ccc(O)c(OC)c2)cc1O |
| 112 to 115 °C | CCNC(=O)c1sc(C)cc1[Si](C)(C)C |
| 122 to 123 °C | CNC1=NS(=O)N=C1NCCCN(Cc1ccccc1)c1ccccn1 (stereo not drawn) |
| 159 °C | COC(=O)C1(Cl)CC(=O)N(c2ccc(Cl)cc2)C1=C(Cl)Cl (stereo not drawn) |
| 144 to 145 °C | C[Si](C)(C)OC1c2cc(Br)ccc2-c2ccc(Br)cc2C1O[Si](C)(C)C (stereo not drawn) |
| 108 to 110 °C | COC(OC)C(=O)NC(Cc1ccccc1)c1ccccc1 (stereo not drawn) |
| 78 to 82 °C | CCCCCCCCCCCCCCCc1c([N+](=O)[O-])cc([N+](=O)[O-])c(O)c1C(=O)O |

| melting point | SMILES |
| --- | --- |
| 175 to 176 °C | CC1(C)NC(=O)N(c2cc(Cl)c(F)c(Cl)c2)C1=O |
| 174 to 175 °C | COCCOc1cc2ncc(C#N)c(Cl)c2cc1O |
| 117 to 118 °C | CC(=O)N1N=C(c2ccncc2)OC1(C)C |
| 202 to 205 °C | NC(=O)c1cccc(-c2nc3sccn3c2-c2ccnc(N[C@@H]3CCCNC3)n2)c1 |
| 175 to 176 °C | Cc1c(C)c2c(c(C)c1O)SC(c1ccccc1O)O2 (stereo not drawn) |
| 168 °C | COC1(c2cc(F)cc(OCc3ccc(-n4ccnc4C)cc3)c2)CCOCC1 |
| 185 to 186 °C | CCCOc1ccc(S(C)(=O)=O)cc1C(=O)Nc1c(C(N)=O)nn(CC2CC2)c1CC |
| 289 to 290 °C | NC(=O)c1cc2cccc(NC(=O)c3cccs3)c2[nH]1 |
| 120 to 121 °C | CSc1cc(C)nc(SC)c1NC(=O)CCCCCSc1nc2ccccc2o1 |
| 96 to 99 °C | CC(=O)CCCCCCC(CC(C)C(O)C(N)CO)c1cccs1 (stereo not drawn) |
| 121 °C | CCC(CC)(CCc1ccc(Cl)cc1)NC(=O)n1nc(N(C)C)n(N=C(C)CC(C)C)c1=O |
| 87 to 88 °C | CCCCCCCCCCCCCCCCCC(=O)N[C@H]1CCCNC(=O)C1 |
| 128 to 129 °C | COn1c(C)nc2c(NCc3c(C)cccc3C)cc(C(=O)N(C)C)cc21 |
| 100 °C | Cc1cc(CN(Cc2cccs2)c2sc(-c3ccc(C(F)(F)F)cc3)nc2C)ccc1OC(C)(C)C(=O)O |
| 143 to 144 °C | COc1ccc2sc(C(N)=O)c(SC(C)C)c2c1 |
| 204 to 205 °C | Cc1cccc(-c2nc3cccnn3c2-c2ccnc(NC(=O)c3cccc(F)c3)c2)c1 |
| 140 °C | CCCC#Cc1cnc(-c2ccc(C(F)(F)F)cc2)nc1 |
| 119 to 123 °C | NCCCCn1cnc2ccccc21 |
| 145 to 147 °C | CCCc1c(OCCCSc2ccc(C(=O)O)cn2)ccc(C(C)=O)c1O |
| 114 to 115 °C | CC(C)C1NC(NC(=O)CCC2CCCCC2)C(=O)N(C)c2ccccc21 (stereo not drawn) |
| 148 to 149 °C | CN1CCCC1=NC(=O)Nc1cccc2ccccc12 |
| 231 to 232 °C | O=C1N(Cc2ccc(NC=NO)nc2)c2ccccc2C12COc1cc3c(cc12)OCCO3 (stereo not drawn) |
| 150 to 151 °C | C[C@@H](n1ccnn1)[C@](O)(Cn1ccnc1)c1ccc(F)cc1F |
| 120 to 125 °C | O=C(OC1CCCCC1)C1Oc2ccccc2Cc2ccccc2O1 |

| SMILES | melting point |
| --- | --- |
| Cc1cccc2c1NC(=O)C(NC(=O)OCc1ccccc1)N=C2c1ccccc1F (racemic) | 222 to 225 °C |
